# Like-named read-outs stand apart in the source and are kept apart here. Marks after values point to notes of the source that are not given here. No end group written: not given here.
# Assays:
# [1] = test system: PBMC; assay: two-step IFNγ ELISpot assay with human PBMC; format: cell-based; conditions: 7 d pre-culture with GAD65 peptide pool, 48 h restimulation, triplicate;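 also: background is unstimulated wells, counts given per 1 million cells, 200,000–250,000 cells per well, restimulated at 37°C, read by Zeiss plate reader, IL-2 and IL-7 fed during pre-culture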
# [2] = target: T1, DRB1*0701 (Homo sapiens, UniProt P01903+P01911, A100R/A102G/A103Q/D57E/D86V/E43K/F76Y/K127E/L162R/M171V/P40G/Q125H/Q99D/R33Q/R42Y/R54Q/S133A/S66F/T210M/V115G/Y107V/Y59L/Y89S); assay: biochemical
# [3] = target: T2, DRB1*1501 (Homo sapiens, UniProt P01903+P01911); assay: competition-based HLA binding assay
# T2 construct: gift: William Kwok, Benaroya Institute, Seattle
# [4] = target: DRB1*0101 (Homo sapiens, UniProt P01903+P01911, A100R/D57E/F55L/F60I/F76Y/I96L/L162R/M171V/P40L/Q125E/R42F/V115G/Y59C); assay: biochemical
# [5] = target: DRB1*0401 (Homo sapiens, UniProt P01903+P01911, A100K/A169T/F76Y/I96L/K127E/L162R/M171V/N62H/P40V/Q125Y/R42H/S133A/S149N/S66Y/V115G/V209L/W38E); conditions: read-out: DRB1*0401 IC50; competition with biotin-Flu-HA 306–318 at 0.1 μM, 24 h, 37°C; NB = non-binder
# [6] = target: T1, DRB1*0701; conditions: read-out: DRB1*0701 IC50; competition with biotin-Flu-HA 306–318 at 1 μM, 24 h, 37°C; NB = non-binder
# [7] = Negative Control 674 PBMC, Tregitope + (5 μg/mL each human Tregitopes 167 and 289)
# [8] = Negative Control 674 PBMC, Tregitope −
# [9] = Subject D1100H (T1D) PBMC, Tregitope + (5 μg/mL each human Tregitopes 167 and 289)
# [10] = Subject D1100H (T1D) PBMC, Tregitope −
# [11] = Subject D1101H (T1D) PBMC, Tregitope + (5 μg/mL each human Tregitopes 167 and 289)
# [12] = Subject D1101H (T1D) PBMC, Tregitope −
# [13] = Subject D1104H (T1D) PBMC, Tregitope + (5 μg/mL each human Tregitopes 167 and 289)
# [14] = Subject D1104H (T1D) PBMC, Tregitope −
# [15] = Subject D1106H (T1D) PBMC, Tregitope + (5 μg/mL each human Tregitopes 167 and 289)
# [16] = Subject D1106H (T1D) PBMC, Tregitope −
# [17] = Subject D1107H (T1D) PBMC, Tregitope + (5 μg/mL each human Tregitopes 167 and 289)
# [18] = Subject D1107H (T1D) PBMC, Tregitope −
# [19] = Negative Control 668 PBMC, Tregitope + (5 μg/mL each human Tregitopes 167 and 289)
# [20] = Negative Control 668 PBMC, Tregitope −
# [21] = Negative Control 669 PBMC, Tregitope + (5 μg/mL each human Tregitopes 167 and 289)
# [22] = Negative Control 669 PBMC, Tregitope −
# [23] = Negative Control 670 PBMC, Tregitope + (5 μg/mL each human Tregitopes 167 and 289)
# [24] = Negative Control 670 PBMC, Tregitope −
# [25] = Subject D1105H (T1D) PBMC, Tregitope + (5 μg/mL each human Tregitopes 167 and 289)
# [26] = Subject D1105H (T1D) PBMC, Tregitope −
Substance,"IFNγ ELISpot SFC over background [1, 7] [SFC over BG/10^6]","IFNγ ELISpot SFC over background [1, 8] [SFC over BG/10^6]","IFNγ ELISpot SFC over background [1, 9] [SFC over BG/10^6]","IFNγ ELISpot SFC over background [1, 10] [SFC over BG/10^6]","IFNγ ELISpot SFC over background [1, 11] [SFC over BG/10^6]","IFNγ ELISpot SFC over background [1, 12] [SFC over BG/10^6]","IFNγ ELISpot SFC over background [1, 13] [SFC over BG/10^6]","IFNγ ELISpot SFC over background [1, 14] [SFC over BG/10^6]","IFNγ ELISpot SFC over background [1, 15] [SFC over BG/10^6]","IFNγ ELISpot SFC over background [1, 16] [SFC over BG/10^6]","IFNγ ELISpot SFC over background [1, 17]","IFNγ ELISpot SFC over background [1, 18] [SFC over BG/10^6]",IC50 [2] [µM],IC50 [3] [µM],IC50 [4] [µM],IC50 [5] [µM],"IFNγ ELISpot SFC over background [1, 19] [SFC over BG/10^6]","IFNγ ELISpot SFC over background [1, 20] [SFC over BG/10^6]","IFNγ ELISpot SFC over background [1, 21]","IFNγ ELISpot SFC over background [1, 22] [SFC over BG/10^6]",other results
"GAD65 protein: whole GAD65 protein (Kronus, UK)",818,44,77,413,59,37,69,32,591,670,46 SFC over BG/10^6,95,–,–,–,–,–,–,–,–,–
GAISNMYAMMIARFKMFPEVKEKGM [GAD65_243–267],–,–,–,–,–,–,–,–,–,–,–,–,8.7,< 5,< 5,–,–,–,–,–,–
LGDKVNFFRMVISNPAATHQD [GAD65_550–570],431,490,141,199,100,126,101,146,113,88,1** SFC over BG/10^6,160,–,–,–,< 25,440,312,30** SFC over BG/10^6,144,"IFNγ ELISpot SFC over background [1, 23]: −90 SFC over BG/10^6; IFNγ ELISpot SFC over background [1, 24]: 25 SFC over BG/10^6; IFNγ ELISpot SFC over background [1, 25]: 228* SFC over BG/10^6; IFNγ ELISpot SFC over background [1, 26]: 352 SFC over BG/10^6"
NMFTYEIAPVFVLLEYVTLKKMRE [GAD65_203–226],109,168,–,–,51,157,154,221,138,207,–,–,–,–,–,< 25,460,475,52 SFC over BG/10^6,109,"IFNγ ELISpot SFC over background [1, 23]: 82** SFC over BG/10^6; IFNγ ELISpot SFC over background [1, 24]: 329 SFC over BG/10^6; IFNγ ELISpot SFC over background [1, 25]: 138* SFC over BG/10^6; IFNγ ELISpot SFC over background [1, 26]: 245 SFC over BG/10^6"
TTVYGAFDPLLAVAD [GAD65_338–352],–,–,–,–,–,–,–,–,–,–,–,–,–,–,4.1,> 50,–,–,–,–,"IC50 ([3]; competition with biotin-MBP 84–102 at 0.5 μM, 24 h, 37°C, NB = non-binder, read-out: DRB1*1501 IC50): 31.3 µM; IC50 [6]: > 50 µM"
VDVFKLWLMWRAKGTTGFEAH [GAD65_450–470],–,–,–,–,–,–,–,–,–,–,–,–,10.2,11.4,25.4,> 50,–,–,–,–,–

# Reference: article PMC3655598, “Application of IgG-Derived Natural Treg Epitopes (IgG Tregitopes) to Antigen-Specific Tolerance Induction in a Murine Model of Type 1 Diabetes” (Journal of Diabetes Research, 2013)
